From ChEMBL document CHEMBL5360624, “Exploitation of Proximity-Mediated Effects in Drug Discovery: An Update of Recent Research Highlights in Perturbing Pathogenic Proteins and Correlated Issues” (J Med Chem, 2023) come the findings set out here.

Data set [1] deals with T1, von Hippel-Lindau disease tumor suppressor/SWI/SNF-related matrix-associated actin-dependent regulator of chromatin subfamily A member 2 (Homo sapiens, UniProt P51531+P40337). Nature of the data set: Protac activity at VHL/SMARCA2 (unknown origin) assessed as degradation of SMARCA2. The class given is protein assay.
Target sequence in this assay (P51531 whole entry): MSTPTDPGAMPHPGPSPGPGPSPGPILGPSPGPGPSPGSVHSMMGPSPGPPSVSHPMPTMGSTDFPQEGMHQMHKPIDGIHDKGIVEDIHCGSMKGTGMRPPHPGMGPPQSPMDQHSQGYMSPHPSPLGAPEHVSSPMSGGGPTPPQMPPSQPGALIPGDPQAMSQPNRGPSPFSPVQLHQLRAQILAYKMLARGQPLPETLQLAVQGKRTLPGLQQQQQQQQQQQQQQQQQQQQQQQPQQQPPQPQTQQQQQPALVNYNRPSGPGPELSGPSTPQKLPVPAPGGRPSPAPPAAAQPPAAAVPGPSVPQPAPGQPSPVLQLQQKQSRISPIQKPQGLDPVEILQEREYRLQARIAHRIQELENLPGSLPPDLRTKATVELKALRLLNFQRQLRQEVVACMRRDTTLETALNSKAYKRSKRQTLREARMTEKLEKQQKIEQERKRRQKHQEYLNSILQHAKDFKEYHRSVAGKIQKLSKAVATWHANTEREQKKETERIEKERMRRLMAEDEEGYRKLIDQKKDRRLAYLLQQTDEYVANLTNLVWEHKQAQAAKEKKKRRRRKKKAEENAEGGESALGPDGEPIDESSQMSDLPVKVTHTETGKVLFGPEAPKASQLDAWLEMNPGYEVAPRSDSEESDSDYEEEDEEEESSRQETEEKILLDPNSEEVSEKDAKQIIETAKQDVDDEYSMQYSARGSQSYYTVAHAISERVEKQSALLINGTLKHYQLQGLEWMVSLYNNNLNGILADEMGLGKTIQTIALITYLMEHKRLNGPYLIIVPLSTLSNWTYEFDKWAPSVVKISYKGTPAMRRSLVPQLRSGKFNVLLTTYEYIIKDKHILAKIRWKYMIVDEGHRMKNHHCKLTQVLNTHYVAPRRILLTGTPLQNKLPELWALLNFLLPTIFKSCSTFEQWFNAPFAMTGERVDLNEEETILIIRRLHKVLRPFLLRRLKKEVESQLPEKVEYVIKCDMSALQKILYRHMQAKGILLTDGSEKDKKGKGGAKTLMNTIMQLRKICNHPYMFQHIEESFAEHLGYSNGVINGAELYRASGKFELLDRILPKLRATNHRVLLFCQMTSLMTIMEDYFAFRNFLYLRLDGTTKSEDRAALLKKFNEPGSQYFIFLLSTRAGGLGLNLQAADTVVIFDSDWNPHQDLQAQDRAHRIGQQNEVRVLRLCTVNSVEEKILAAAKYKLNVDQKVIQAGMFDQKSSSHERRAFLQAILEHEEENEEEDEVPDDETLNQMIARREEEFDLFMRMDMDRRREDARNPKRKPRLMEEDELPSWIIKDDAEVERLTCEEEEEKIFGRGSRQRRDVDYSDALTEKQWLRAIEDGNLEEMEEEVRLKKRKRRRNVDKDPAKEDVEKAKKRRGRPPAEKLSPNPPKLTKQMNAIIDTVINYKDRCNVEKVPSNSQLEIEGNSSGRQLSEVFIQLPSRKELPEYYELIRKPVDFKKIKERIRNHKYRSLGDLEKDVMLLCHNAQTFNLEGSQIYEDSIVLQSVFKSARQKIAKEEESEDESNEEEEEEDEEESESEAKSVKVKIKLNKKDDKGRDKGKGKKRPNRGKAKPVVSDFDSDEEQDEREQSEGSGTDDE
Target sequence in this assay (P40337 whole entry): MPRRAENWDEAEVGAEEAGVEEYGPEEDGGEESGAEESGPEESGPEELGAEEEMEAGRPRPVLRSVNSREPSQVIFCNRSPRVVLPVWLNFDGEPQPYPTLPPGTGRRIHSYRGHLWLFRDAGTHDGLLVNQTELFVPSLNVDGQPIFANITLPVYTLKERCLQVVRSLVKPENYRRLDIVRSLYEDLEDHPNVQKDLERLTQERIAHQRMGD
Data set [2] deals with T1, von Hippel-Lindau disease tumor suppressor/SWI/SNF-related matrix-associated actin-dependent regulator of chromatin subfamily A member 2. In words: Protac activity at VHL/SMARCA2 (unknown origin) assessed as degradation of SMARCA2 relative to control. In kind it is protein assay.
Target sequence in this assay (P40337 whole entry, looked up): as the sequence (P40337 whole entry) above
Target sequence in this assay (P51531 whole entry, looked up): as the sequence (P51531 whole entry) above
Data set [3] has as its target SWI/SNF-related matrix-associated actin-dependent regulator of chromatin subfamily A member 2 (Homo sapiens, UniProt P51531). Nature of the data set: Inhibition of SMARCA2 (unknown origin) assessed as dissociation constant.
Data set [4] is described as follows: Oral bioavailability in NMRI mouse. To be noted: in vivo. The class given is ADME, organism-based.
Data set [5] deals with T1, von Hippel-Lindau disease tumor suppressor/SWI/SNF-related matrix-associated actin-dependent regulator of chromatin subfamily A member 2. In words: Protac activity at VHL/SMARCA2 in human RKO cells assessed as degradation of SMARCA2. In kind it is cell-based.
Target sequence in this assay (P51531 whole entry): as above
Target sequence in this assay (P40337 whole entry): as the sequence (P40337 whole entry) above
The target in data set [6] is von Hippel-Lindau disease tumor suppressor/SWI/SNF-related matrix-associated actin-dependent regulator of chromatin subfamily A member 4 (Homo sapiens, UniProt P51532+P40337). Nature of the data set: Protac activity at VHL/SMARCA4 in human RKO cells assessed as degradation of SMARCA4. In kind it is cell-based.
For data set [7], the species on record is Homo sapiens. In words: Selectivity index, ratio of DC50 for VHL/SMARCA2 in human RKO cells to DC50 for VHL/SMARCA4 in human RKO cells. In kind it is cell-based.

Sequence of von Hippel-Lindau disease tumor suppressor/SWI/SNF-related matrix-associated actin-dependent regulator of chromatin subfamily A member 4 (P51532 whole entry): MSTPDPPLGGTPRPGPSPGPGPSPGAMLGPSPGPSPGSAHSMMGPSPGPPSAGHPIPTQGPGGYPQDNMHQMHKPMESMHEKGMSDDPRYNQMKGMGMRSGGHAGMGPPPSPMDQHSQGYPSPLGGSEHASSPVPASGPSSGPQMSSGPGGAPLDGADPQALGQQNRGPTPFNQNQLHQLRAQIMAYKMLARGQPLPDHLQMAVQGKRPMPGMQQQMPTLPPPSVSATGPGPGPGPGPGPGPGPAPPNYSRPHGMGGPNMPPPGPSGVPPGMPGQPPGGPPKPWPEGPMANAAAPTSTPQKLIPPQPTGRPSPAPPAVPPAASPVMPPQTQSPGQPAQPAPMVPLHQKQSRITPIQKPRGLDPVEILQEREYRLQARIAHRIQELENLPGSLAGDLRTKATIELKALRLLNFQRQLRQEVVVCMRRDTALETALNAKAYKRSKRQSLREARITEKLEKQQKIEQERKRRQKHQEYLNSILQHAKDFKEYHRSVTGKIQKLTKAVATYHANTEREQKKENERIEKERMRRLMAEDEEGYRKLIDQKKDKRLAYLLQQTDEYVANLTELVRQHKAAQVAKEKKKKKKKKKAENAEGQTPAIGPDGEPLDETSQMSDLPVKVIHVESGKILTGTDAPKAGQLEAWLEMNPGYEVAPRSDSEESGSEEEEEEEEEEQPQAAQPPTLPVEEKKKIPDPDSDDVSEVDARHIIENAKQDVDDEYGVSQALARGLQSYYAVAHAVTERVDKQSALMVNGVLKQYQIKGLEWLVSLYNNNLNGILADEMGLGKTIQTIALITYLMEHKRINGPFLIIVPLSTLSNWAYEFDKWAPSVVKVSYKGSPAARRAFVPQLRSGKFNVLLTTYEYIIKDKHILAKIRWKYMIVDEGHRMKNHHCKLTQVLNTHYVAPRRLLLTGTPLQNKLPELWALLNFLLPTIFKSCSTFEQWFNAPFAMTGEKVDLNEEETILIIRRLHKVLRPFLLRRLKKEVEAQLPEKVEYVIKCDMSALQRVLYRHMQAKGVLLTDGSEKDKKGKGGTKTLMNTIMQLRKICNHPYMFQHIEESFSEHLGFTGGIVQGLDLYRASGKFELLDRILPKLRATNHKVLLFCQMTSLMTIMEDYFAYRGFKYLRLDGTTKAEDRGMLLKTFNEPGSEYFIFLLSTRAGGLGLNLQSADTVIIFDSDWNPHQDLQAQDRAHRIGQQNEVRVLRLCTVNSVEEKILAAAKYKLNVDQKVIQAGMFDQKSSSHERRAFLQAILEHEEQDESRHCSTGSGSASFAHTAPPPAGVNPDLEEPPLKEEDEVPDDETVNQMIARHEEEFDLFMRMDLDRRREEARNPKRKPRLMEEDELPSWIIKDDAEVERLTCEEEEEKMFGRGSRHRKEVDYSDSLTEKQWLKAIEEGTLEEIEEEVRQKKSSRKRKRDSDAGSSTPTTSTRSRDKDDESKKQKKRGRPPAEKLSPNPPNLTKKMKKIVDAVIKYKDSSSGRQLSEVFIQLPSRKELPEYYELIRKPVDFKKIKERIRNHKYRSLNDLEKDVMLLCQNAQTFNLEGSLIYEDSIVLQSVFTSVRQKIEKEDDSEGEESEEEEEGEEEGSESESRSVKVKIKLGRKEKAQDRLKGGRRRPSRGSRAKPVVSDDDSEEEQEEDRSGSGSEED
Sequence of von Hippel-Lindau disease tumor suppressor/SWI/SNF-related matrix-associated actin-dependent regulator of chromatin subfamily A member 4 (P40337 whole entry): as the sequence (P40337 whole entry) above
Sequence of SWI/SNF-related matrix-associated actin-dependent regulator of chromatin subfamily A member 2 (P51531 whole entry): as the sequence (P51531 whole entry) above

`Cc1ncsc1-c1ccc(CNC(=O)[C@@H]2C[C@@H](O)CN2C(=O)[C@@H](NC(=O)C2(F)CC2)C(C)(C)C)c(OCCCN2CCC(c3ccc4c(c3)n(C3CCCC3)c3nc(=O)c5c(Br)cccc5n43)CC2)c1`: the DC50 in data set [1] was determined as 78 nM. In data set [2], the Emax stood at 46%.

Regarding `O=c1nc2n(C3CCCC3)c3cc(C4CCNCC4)ccc3n2c2cccc(Br)c12`, the Kd in data set [3] turned out to be 46 nM.

In data set [4], `Cc1ncsc1-c1ccc(CNC(=O)[C@@H]2C[C@@H](O)CN2C(=O)[C@@H](NC(=O)C2(F)CC2)C(C)(C)C)c(CC[C@H](C)CCN2CCC(c3ccc4c(c3)n(C3CCCC3)c3nc(=O)c5c(Br)cccc5n43)CC2)c1` yielded a bioavailability of 22%. Further, the DC50 in data set [5] came to 1 nM; in data set [6], 32 nM. Also, the Selectivity Index in data set [7] was over 30.
